Results as given in ChEMBL document CHEMBL3232855, “The discovery of N-((2H-tetrazol-5-yl)methyl)-4-((R)-1-((5r,8R)-8-(tert-butyl)-3-(3,5-dichlorophenyl)-2-oxo-1,4-diazaspiro[4.5]dec-3-en-1-yl)-4,4-dimethylpentyl)benzamide (SCH 900822): a potent and selective glucagon receptor antagonist” (J Med Chem, 2014).
Calls of active or inactive are those of the source. The rule behind the calls is not given here.

Legend:
[1] = molecular target: T1, Gastric inhibitory polypeptide receptor (Homo sapiens, UniProt P48546); assay: Antagonist activity at human GIPR assessed as inhibition of cAMP production; type: functional
T1 sequence (P48546 whole entry): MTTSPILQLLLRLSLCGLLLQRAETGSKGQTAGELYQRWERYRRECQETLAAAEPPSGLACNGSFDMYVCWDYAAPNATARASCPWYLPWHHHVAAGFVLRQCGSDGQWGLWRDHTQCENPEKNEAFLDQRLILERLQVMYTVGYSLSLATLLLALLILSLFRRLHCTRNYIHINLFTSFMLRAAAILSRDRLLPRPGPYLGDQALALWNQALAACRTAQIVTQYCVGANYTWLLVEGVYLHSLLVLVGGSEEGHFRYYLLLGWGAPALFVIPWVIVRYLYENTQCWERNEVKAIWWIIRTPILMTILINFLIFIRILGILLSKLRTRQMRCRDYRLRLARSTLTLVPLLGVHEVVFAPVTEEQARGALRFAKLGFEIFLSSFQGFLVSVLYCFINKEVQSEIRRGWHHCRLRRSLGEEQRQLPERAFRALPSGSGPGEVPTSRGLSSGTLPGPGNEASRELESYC

[2] = Half life in rat at 3 mg/kg, iv; type: ADME, organism-based; set-up: dose 3 mg/kg, route intravenous; conditions: in vivo
[3] = Plasma concentration in streptozotocin-induced ICR mouse type-2 diabetic model at 10 mg/kg, po measured at 8 hrs by HPLC/MS/MS analysis; type: ADME, organism-based; set-up: dose 10 mg/kg, route oral
[4] = test system: Mus musculus; assay: Dose-normalized AUC in mouse at 3 mg/kg, po; type: ADME, organism-based; set-up: dose 3 mg/kg, route oral; conditions: in vivo
[5] = Plasma clearance in monkey at 3 mg/kg, iv; type: ADME, organism-based, Macaca mulatta; set-up: dose 3 mg/kg, route intravenous; conditions: rhesus monkey
[6] = test system: Mus musculus; assay: Antidiabetic activity in diet-induced obese ICR mouse model assessed as decrease in nonfasting blood glucose level at 3 to 10 mg/kg, po measured at 24 hrs by glucometer; type: functional, organism-based
[7] = Plasma clearance in rat at 3 mg/kg, iv; type: ADME, organism-based; set-up: dose 3 mg/kg, route intravenous
[8] = Volume of distribution at steady state in rat at 3 mg/kg, iv; type: ADME, organism-based; set-up: dose 3 mg/kg, route intravenous; conditions: in vivo, read-out: Vdss
[9] = molecular target: Glucagon-like peptide 1 receptor (Homo sapiens, UniProt P43220); assay: Antagonist activity at human GLP-1R expressed in CHO cells assessed as inhibition of GLP-1-stimulated cAMP production preincubated for 30 mins followed by GLP-1 induction measured after 45 mins by LANCE assay; type: functional, cell-based
[10] = test system: Mus musculus; assay: Toxicity in streptozotocin-induced ICR mouse type-2 diabetic model assessed as effect on body weight at 3 to 30 mg/kg, po after 24 hrs; type: organism-based; set-up: dose 3-30 mg/kg, route oral; conditions: in vivo
[11] = Oral bioavailability in dog at 5 mg/kg; type: ADME, organism-based, Canis lupus familiaris; conditions: in vivo
[12] = Oral bioavailability in mouse at 3 mg/kg; type: ADME, organism-based; conditions: in vivo
[13] = molecular target: T2, Vasoactive intestinal polypeptide receptor 1 (Homo sapiens) (UniProt P32241); assay: Binding affinity to VIP-1 receptor (unknown origin) at 10 uM by agonist displacement assay relative to control
T2 sequence (whole entry): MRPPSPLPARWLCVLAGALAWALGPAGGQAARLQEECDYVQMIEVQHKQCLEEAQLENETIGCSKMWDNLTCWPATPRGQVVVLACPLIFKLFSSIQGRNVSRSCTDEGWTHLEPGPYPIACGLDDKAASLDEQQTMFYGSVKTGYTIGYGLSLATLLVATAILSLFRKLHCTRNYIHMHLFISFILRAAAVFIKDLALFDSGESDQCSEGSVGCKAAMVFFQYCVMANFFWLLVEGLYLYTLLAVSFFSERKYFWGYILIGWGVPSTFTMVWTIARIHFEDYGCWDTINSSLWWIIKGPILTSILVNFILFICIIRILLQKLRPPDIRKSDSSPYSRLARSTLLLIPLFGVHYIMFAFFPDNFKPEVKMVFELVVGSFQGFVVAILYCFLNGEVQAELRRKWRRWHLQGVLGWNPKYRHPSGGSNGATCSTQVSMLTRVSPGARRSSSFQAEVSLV

[14] = Plasma concentration in streptozotocin-induced ICR mouse type-2 diabetic model at 30 mg/kg, po measured at 8 hrs by HPLC/MS/MS analysis; type: ADME, organism-based; set-up: dose 30 mg/kg, route oral
[15] = molecular target: Kappa-type opioid receptor (Homo sapiens) (UniProt P41145); assay: Binding affinity to kappa opioid receptor (unknown origin) at 10 uM by agonist displacement assay relative to control
[16] = Half life in dog at 1 mg/kg, iv; type: ADME, organism-based, Canis lupus familiaris; set-up: dose 1 mg/kg, route intravenous; conditions: in vivo
[17] = Oral bioavailability in monkey at 3 mg/kg; type: ADME, organism-based, Macaca mulatta; conditions: rhesus monkey, in vivo
[18] = Half life in mouse at 3 mg/kg, iv; type: ADME, organism-based; set-up: dose 3 mg/kg, route intravenous; conditions: in vivo
[19] = test system: Canis familiaris; assay: Dose-normalized AUC in dog at 5 mg/kg, po; type: ADME, organism-based, Canis lupus familiaris; set-up: dose 5 mg/kg, route oral; conditions: in vivo
[20] = test system: Rattus norvegicus; assay: Dose-normalized AUC in rat at 3 mg/kg, po; type: ADME, organism-based; set-up: dose 3 mg/kg, route oral; conditions: in vivo
[21] = molecular target: T3, Glucagon receptor (Homo sapiens, UniProt P47871); assay: biochemical; type: cell-based, CHO
Description: Displacement of [125I]-glucagon from recombinant human GCGR expressed in CHO cells after 60 mins by scintillation counting analysis

[22] = Volume of distribution at steady state in mouse at 3 mg/kg, iv; type: ADME, organism-based; set-up: dose 3 mg/kg, route intravenous; conditions: in vivo, read-out: Vdss
[23] = molecular target: T3, Glucagon receptor; assay: Antagonist activity at human GCGR expressed in CHO cells assessed as inhibition of glucagon-stimulated cAMP production preincubated for 30 mins followed by glucagon induction measured after 45 mins by LANCE assay; type: functional, cell-based
[24] = molecular target: T4, Adenosine receptor A3 (Homo sapiens) (UniProt P0DMS8); conditions: 10 uM
T4 sequence (whole entry): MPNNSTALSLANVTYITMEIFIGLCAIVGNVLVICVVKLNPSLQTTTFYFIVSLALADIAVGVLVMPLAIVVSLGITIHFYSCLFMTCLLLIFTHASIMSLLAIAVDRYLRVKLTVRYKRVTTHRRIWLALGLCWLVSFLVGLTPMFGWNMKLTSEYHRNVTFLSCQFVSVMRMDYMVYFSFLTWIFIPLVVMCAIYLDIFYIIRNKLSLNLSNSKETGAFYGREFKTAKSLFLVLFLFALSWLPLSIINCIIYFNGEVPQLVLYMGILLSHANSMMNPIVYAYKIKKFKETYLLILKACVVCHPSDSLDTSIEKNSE
Description: Binding affinity to adenosine A3 receptor (unknown origin) at 10 uM by agonist displacement assay relative to control

[25] = Plasma clearance in mouse at 3 mg/kg, iv; type: ADME, organism-based; set-up: dose 3 mg/kg, route intravenous
[26] = Volume of distribution at steady state in dog at 1 mg/kg, iv; type: ADME, organism-based, Canis lupus familiaris; set-up: dose 1 mg/kg, route intravenous; conditions: in vivo, read-out: Vdss
[27] = Volume of distribution at steady state in monkey at 3 mg/kg, iv; type: ADME, organism-based, Macaca mulatta; set-up: dose 3 mg/kg, route intravenous; conditions: rhesus monkey, in vivo, read-out: Vdss
[28] = Plasma concentration in diet-induced obese ICR mouse model at 10 mg/kg, po measured at 24 hrs by HPLC/MS/MS analysis; type: ADME, organism-based; set-up: dose 10 mg/kg, route oral
[29] = test system: Rhesus monkey; assay: Dose-normalized AUC in monkey at 3 mg/kg, po; type: ADME, organism-based, Macaca mulatta; set-up: dose 3 mg/kg, route oral; conditions: in vivo

T3 sequence (P47871 whole entry): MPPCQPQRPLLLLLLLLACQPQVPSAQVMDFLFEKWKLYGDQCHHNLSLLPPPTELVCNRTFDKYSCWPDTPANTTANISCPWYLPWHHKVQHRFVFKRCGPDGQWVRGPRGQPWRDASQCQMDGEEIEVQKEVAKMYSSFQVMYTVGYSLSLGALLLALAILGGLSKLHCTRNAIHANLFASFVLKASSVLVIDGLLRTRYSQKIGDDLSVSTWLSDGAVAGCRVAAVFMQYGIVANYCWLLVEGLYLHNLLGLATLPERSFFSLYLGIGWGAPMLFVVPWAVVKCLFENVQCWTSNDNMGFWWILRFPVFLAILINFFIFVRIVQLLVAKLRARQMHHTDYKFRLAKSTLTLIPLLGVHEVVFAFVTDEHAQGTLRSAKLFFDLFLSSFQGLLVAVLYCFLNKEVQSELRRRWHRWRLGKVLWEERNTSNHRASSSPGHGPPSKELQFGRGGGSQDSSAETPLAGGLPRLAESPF
Sequence of Glucagon-like peptide 1 receptor (P43220 whole entry): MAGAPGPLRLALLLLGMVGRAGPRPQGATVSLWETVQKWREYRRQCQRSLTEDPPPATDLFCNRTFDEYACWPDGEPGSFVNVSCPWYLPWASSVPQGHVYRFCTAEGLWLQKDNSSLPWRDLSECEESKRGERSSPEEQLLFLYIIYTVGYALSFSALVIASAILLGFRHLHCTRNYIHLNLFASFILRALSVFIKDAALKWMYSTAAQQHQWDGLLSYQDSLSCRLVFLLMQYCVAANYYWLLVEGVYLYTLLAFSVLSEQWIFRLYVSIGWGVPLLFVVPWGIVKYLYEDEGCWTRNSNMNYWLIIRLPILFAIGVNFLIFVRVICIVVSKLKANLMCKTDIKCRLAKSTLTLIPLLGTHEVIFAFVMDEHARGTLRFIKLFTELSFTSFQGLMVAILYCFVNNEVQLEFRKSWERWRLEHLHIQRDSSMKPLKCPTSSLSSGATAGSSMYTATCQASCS
Sequence of Kappa-type opioid receptor (Homo sapiens) (P41145 whole entry): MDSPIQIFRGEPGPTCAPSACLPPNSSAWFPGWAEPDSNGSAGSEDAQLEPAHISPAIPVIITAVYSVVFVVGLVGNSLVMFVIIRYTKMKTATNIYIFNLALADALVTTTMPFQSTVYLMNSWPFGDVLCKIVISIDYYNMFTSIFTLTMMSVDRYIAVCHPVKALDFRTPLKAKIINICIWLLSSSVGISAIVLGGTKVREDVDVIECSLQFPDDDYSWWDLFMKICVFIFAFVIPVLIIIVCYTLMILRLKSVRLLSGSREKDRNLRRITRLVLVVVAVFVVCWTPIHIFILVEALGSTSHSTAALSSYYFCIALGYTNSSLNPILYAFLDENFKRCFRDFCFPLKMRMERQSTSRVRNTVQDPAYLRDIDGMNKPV

For `CC(C)(C)CC[C@H](c1ccc(C(=O)NCc2nn[nH]n2)cc1)N1C(=O)C(c2cc(Cl)cc(Cl)c2)=N[C@]12CC[C@@H](C(C)(C)C)CC2`, the IC50 [1] was 2100 nM, the half-life [2] was 8.3 h and the concentration at 8 h [3] was 4.5 µM. For the same compound, the AUC/dose [4] was 6 µM·h/mg/kg, the clearance [5] was 0.6 mL/min/kg and the Activity [6] was “Active”. The clearance [7] was 1.8 mL/min/kg, the Vd [8] was 1.3 L/kg and the IC50 [9] was over 10000 nM. For the same compound, the Activity [10] was “Non-toxic”, the bioavailability [11] was 32% and the bioavailability [12] was 31%. For the same compound, the inhibition [13] was 75%, the concentration at 8 h [14] was 8.5 µM and the inhibition [15] was 75%. It also gave a half-life [16] of 6.1 h, a bioavailability [17] of 49% and a half-life [18] of 11 h. The AUC/dose [19] was 30 µM·h/mg/kg, the AUC/dose [20] was 2.2 µM·h/mg/kg and the IC50 [21] was 24 nM. For the same compound, the Vd [22] was 1.3 L/kg, the IC50 [23] was 46 nM and the inhibition [24] was 96%. The clearance [25] was 1.4 mL/min/kg, the Vd [26] was 0.1 L/kg and the Vd [27] was 0.4 L/kg. For the same compound, the concentration at 24 h [28] was 0.81 µM and the AUC/dose [29] was 22 µM·h/mg/kg.
